{
  "source": "patent US20240417687A1",
  "about": "“THYMIC CELLS AND METHODS OF MAKING” (Thymmune Therapeutics, Inc., priority 2021, published 2024)",
  "system": "residual undifferentiated pluripotent cells",
  "assay": "Teratoma formation after transplantation of TEP populations treated with YM155",
  "type": "in vivo",
  "conditions": "TEP population treated prior to transplantation versus not treated",
  "experimental": "An important safety issues to address in iPSC-derived cell therapy products was the possible presence of residual undifferentiated pluripotent cells in the end. Such iPSCs in the product can give rise to teratomas. […] YM155, a Survivin inhibitor and PluriSIn-1, a stearoyl-CoA desaturase inhibitor was tested.",
  "data": [
    {"smiles": "COCCn1c2c([n+](Cc3cnccn3)c1C)C(=O)c1ccccc1C2=O", "note": "[YM155]", "values": [
      {"measurement": "teratomas in vivo", "result": "smaller teratomas"}
    ]}
  ]
}
